In patent US20060252823A1, “Isocoumarin-based inhibitors of urokinase-type plasminogen activator” (priority 2005, published 2006):
Counter-ions that a name gives are not always drawn.

Experiments:
Human urokinase = target: T1, Human urokinase (Homo sapiens, UniProt P00749); assay: Kinetics of human urokinase inhibition with Spectrozyme UK substrate; type: biochemical; details: for Ki: human uPA, 0.1M Tris pH 8.8, 25° C., initial rate data; for fold improvement of Ki over 4d: compared to unsubstituted compound 4d; for binding to uPA compared to unsubstituted counterparts: qualitative comparison of dissociation constants (Table 1)
T1 construct: purchased Sigma/Aldrich
Protocol: Human urokinase (Sigma/Aldrich, St. Louis, Mo.) and Spectrozyme UK (American Diagnostica, Stamford, Conn.) were used for the kinetic studies. Enzyme activity was routinely measured in 1 ml volumes of 0.1M Tris, pH 8.8, Spectrozyme UK (10 μM to 150 μM) and 0.64 μg (3,770 units/mg protein) human urokinase. Reactions were monitored at 405 nm, 25° C., with a Perkin/Elmer Lambda S2 UV/vis spectrophotometer. Michaelis constants and Ki values were determined from initial rate data, measured at 8 to 10 substrate concentrations, by non-linear regression analysis with SigmaPlot's Enzyme Kinetics Module™ (Chicago, Ill., USA).

For `N=C(N)SCCOc1oc(=O)c2ccccc2c1Cl` [Compound 5c, 4-Chloro-3-(2-isothioureidoethoxy)isocoumarin hydrobromide], which Ki (Human urokinase) is on record?
Its Ki is 27 nM.

Which melting point does the source give for `O=c1oc(OCCCCBr)c(Cl)c2ccccc12` [Compound 4e, 3-(4-Bromobutoxy)4-chloroisocoumarin] here?
Its melting point is 75 to 77 °C.

For `Nc1ccc2c(Cl)c(OCCCBr)oc(=O)c2c1` [Compound 6b, 7-Amino-3-(3-bromopropoxy)-4-chloroisocoumarin], which melting point is on record?
Its melting point is 106 to 107 °C.

Which melting point does the source give for `Br.N=C(S)NCCOc1oc(=O)c2ccccc2c1Cl` [Compound 5c, 4-Chloro-3-(2-isothioureidoethoxy)isocoumarin hydrobromide] here?
The melting point was 168 to 170 °C.

With `O=c1oc(OCCCBr)c(Cl)c2ccccc12` [Compound 4d, 3-(3-Bromopropoxy)-4-chloroisocoumarin] as the compound, how does the “type of inhibition of uPA” value (Human urokinase) read?
The value was “simple competitive inhibition with no evidence of rapid inactivation”.

And the Ki (Human urokinase)?
The Ki was 9000 nM.

And the melting point?
Its melting point is 95 to 97 °C.

For `O=c1oc(OCCCBr)c(Cl)c2ccc([N+](=O)[O-])cc12` [Compound 4b, 3-(3-Bromopropoxy)-4-chloro-7-nitroisocoumarin], which “fold improvement of Ki over 4d” value (Human urokinase) is on record?
The value was 8 fold.

And the Ki (Human urokinase)?
Its Ki is 1200 nM.

What about the “binding to uPA compared to unsubstituted counterparts” value (Human urokinase) of the same compound?
The value was “improved binding”.

What about the melting point of the same compound?
Its melting point is 131 to 134 °C.

For `O=C(Nc1ccc2c(Cl)c(OCCBr)oc(=O)c2c1)c1ccccc1` [Compound 8a, 7-Benzamido-3-(2-bromoethoxy)-4-chloroisocoumarin], which “binding to uPA compared to unsubstituted counterparts” value (Human urokinase) is on record?
Its value is “markedly improved binding”.

And the melting point?
Its melting point is 214 to 216 °C.

With `Br.NC(S)=NCCCOc1cc2ccc(N)cc2c(=O)o1` [Compound 7b, 7-Amino-3-(3-isothioureidopropoxy)isocoumarin hydrobromide] as the compound, how does the melting point read?
Its melting point is 173 °C.

With `O=c1oc(OCCBr)c(Cl)c2ccccc12` [Compound 4c, 3-(2-Bromoethoxy)-4-chloroisocoumarin] as the compound, how does the melting point read?
The melting point was 81 to 82 °C.

Which “binding to uPA compared to unsubstituted counterparts” value (Human urokinase) does the source give for `Br.NC(S)=NCCCOc1oc(=O)c2cc(NC(=O)c3ccccc3)ccc2c1Cl` [Compound 9b, 7-Benzamido-4-chloro-3-(3-isothioureidopropoxy)isocoumarin hydrobromide] here?
Its value is “did not exhibit any significant improvement in binding”.

And the melting point?
Its melting point is 203 to 204 °C.

Which melting point does the source give for `Nc1ccc2c(Cl)c(OCCBr)oc(=O)c2c1` [Compound 6a, 7-Amino-3-(2-bromoethoxy)4-chloroisocoumarin] here?
Its melting point is 134 to 136 °C.

With `O=c1oc(OCCBr)cc2ccc([N+](=O)[O-])cc12` [Compound 10a, 3-(2-Bromoethoxy)-7-nitroisocoumarin] as the compound, how does the melting point read?
Its melting point is 95 to 97 °C.

With `O=c1oc(OCCBr)c(Cl)c2ccc([N+](=O)[O-])cc12` [Compound 4a, 3-(2-Bromoethoxy)-4-chloro-7-nitroisocoumarin] as the compound, how does the “binding to uPA compared to unsubstituted counterparts” value (Human urokinase) read?
Its value is “improved binding”.

What about the melting point of the same compound?
The melting point was 126 to 128 °C.

For `Br.N=C(S)NCCOc1oc(=O)c2cc(NC(=O)c3ccccc3)ccc2c1Cl` [Compound 9a, 7-Benzamido-4-chloro-3-(2-isothioureidoethoxy)isocoumarin hydrobromide], which melting point is on record?
The melting point was 173 to 175 °C.

For `O=C(c1c(OCCCBr)oc(=O)c2ccccc12)C(F)(F)F` [Compound 10c, 3-(3-Bromopropoxy)-4-trifluoroacetylisocoumarin], which “binding to uPA compared to unsubstituted counterparts” value (Human urokinase) is on record?
The value was “did not show improved binding”.

With `O=c1oc(OCCCBr)cc2ccc([N+](=O)[O-])cc12` [Compound 10b, 3-(3-Bromopropoxy)-7-nitroisocoumarin] as the compound, how does the melting point read?
Its melting point is 112 to 113 °C.

For `O=C(Nc1ccc2c(Cl)c(OCCCBr)oc(=O)c2c1)c1ccccc1` [Compound 8b, 7-Benzamido-3-(3-bromopropoxy)-4-chloroisocoumarin], which “fold improvement of Ki over 4d” value (Human urokinase) is on record?
Its value is 300 fold.

What about the Ki (Human urokinase) of the same compound?
The Ki was 34 nM.

And the dissociation constant (Human urokinase; in words)?
Its dissociation constant is “low nanomolar range”.

What about the “binding to uPA compared to unsubstituted counterparts” value (Human urokinase) of the same compound?
The value was “markedly improved binding”.

And the melting point?
Its melting point is 193 to 194 °C.

Which melting point does the source give for `Br.N=C(S)NCCCCOc1oc(=O)c2ccccc2c1Cl` [Compound 5e, 4-Chloro-3-(4-isothioureidobutoxy)isocoumarin hydrobromide] here?
Its melting point is 159 to 161 °C.

For `Nc1ccc2cc(OCCBr)oc(=O)c2c1` [Compound 11, 7-Amino-3-(2-bromoethoxy)isocoumarin], which melting point is on record?
The melting point was over 280 °C.

With `Br.NC(S)=NCCCOc1oc(=O)c2ccccc2c1Cl` [Compound 5d, 4-Chloro-3-(3-isothioureidopropoxy)isocoumarin hydrobromide] as the compound, how does the melting point read?
The melting point was 159 to 163 °C.
